Source: the NIST ThermoML archive (doi:10.1016/j.tca.2015.06.017)

Settings: Liquid, Vibrating tube method

CCCCCCC [heptane]
mass density [kg/m3]
Settings	283.15 K	288.15 K	293.15 K	298.15 K	303.15 K	308.15 K	313.15 K	318.15 K	323.15 K	328.15 K
100 kPa	692.57	688.55	684.19	679.95	675.68	671.39	667.06	662.54	658.32	653.81
2000 kPa	694.49	690.28	686.15	682.02	677.75	673.45	669.26	664.87	660.53	656.27
5000 kPa	697.06	693.01	688.99	684.8	680.76	676.49	672.35	668.35	664.05	659.84
7000 kPa	698.8	694.77	690.74	686.68	682.65	678.48	674.51	670.32	666.33	661.99
10000 kPa	701.2	697.23	693.41	689.23	685.52	681.37	677.42	673.52	669.41	665.25
20000 kPa	709.08	705.18	701.57	697.65	694.07	690.12	686.53	682.85	679.17	675.25
30000 kPa	716.12	712.38	708.99	705.17	701.86	698.22	694.65	691.31	687.64	684.02
40000 kPa	722.63	719.01	715.7	712.11	708.87	705.32	702.08	698.89	695.38	691.84
50000 kPa	728.63	725.2	722.03	718.54	715.5	712.12	708.98	705.82	702.5	699.13
60000 kPa	734.33	731.01	728.02	724.73	721.67	718.41	715.39	712.36	709.15	706.05
65000 kPa	736.99	733.73	730.72	727.65	724.56	721.43	718.32	715.32	712.32	709.3
